From US7579368B2, “Cis-imidazolines” (Hoffman-La Roche Inc., priority 2005, dated 2009) come the findings set out here.

The target of this assay is interaction between p53 and MDM2 proteins (recombinant GST-tagged MDM2 and p53 peptide) (Homo sapiens, UniProt Q00987). Put plainly: HTRF assay of inhibition of the p53-MDM2 interaction (GST-MDM2 / biotinylated p53 peptide). The assay is classed as binding. The settings on record: 90 nM biotinylated p53 peptide, 160 ng/ml GST-MDM2, 37° C. 1 h. Here is the method:
The ability of the compounds to inhibit the interaction between p53 and MDM2 proteins was measured by an HTRF (homogeneous time-resolved fluorescence) assay in which recombinant GST-tagged MDM2 binds to a peptide that resembles the MDM2-interacting region of p53 (Lane et al.). Binding of GST-MDM2 protein and p53-peptide (biotinylated on its N-terminal end) is registered by the FRET (fluorescence resonance energy transfer) between Europium (Eu)-labeled anti-GST antibody and streptavidin-conjugated Allophycocyanin (APC).
Test is performed in black flat-bottom 384-well plates (Costar) in a total volume of 40 uL containing: 90 nM biotinylated peptide, 160 ng/ml GST-MDM2, 20 nM streptavidin-APC (PerkinElmerWallac), 2 nM Eu-labeled anti-GST-antibody (PerkinElmerWallac), 0.2% bovine serum albumin (BSA), 1 mM dithiothreitol (DTT) and 20 mM […] (TBS) buffer as follows: Add 10 uL of GST-MDM2 (640 ng/ml working solution) in reaction buffer to each well. Add 10 uL diluted compounds (1:5 dilution in reaction buffer) to each well, mix by shaking. Add 20 uL biotinylated p53 peptide (180 nM working solution) in reaction buffer to each well and mix on shaker. Incubate at 37° C. for 1 h. Add 20 uL streptavidin-APC and Eu-anti-GST antibody mixture (6 nM Eu-anti-GST and 60 nM streptavidin-APC working solution) in TBS buffer with 0.2% BSA, shake at room temperature for 30 minutes and read using a TRF-capable plate reader at 665 and 615 nm (Victor 5, Perkin ElmerWallac). If not specified, the reagents were purchased from Sigma Chemical Co.

Where a name gives a salt, the structure may show the parent alone.

interaction between p53 and MDM2 proteins (recombinant GST-tagged MDM2 and p53 peptide), sequence (Q00987 whole entry): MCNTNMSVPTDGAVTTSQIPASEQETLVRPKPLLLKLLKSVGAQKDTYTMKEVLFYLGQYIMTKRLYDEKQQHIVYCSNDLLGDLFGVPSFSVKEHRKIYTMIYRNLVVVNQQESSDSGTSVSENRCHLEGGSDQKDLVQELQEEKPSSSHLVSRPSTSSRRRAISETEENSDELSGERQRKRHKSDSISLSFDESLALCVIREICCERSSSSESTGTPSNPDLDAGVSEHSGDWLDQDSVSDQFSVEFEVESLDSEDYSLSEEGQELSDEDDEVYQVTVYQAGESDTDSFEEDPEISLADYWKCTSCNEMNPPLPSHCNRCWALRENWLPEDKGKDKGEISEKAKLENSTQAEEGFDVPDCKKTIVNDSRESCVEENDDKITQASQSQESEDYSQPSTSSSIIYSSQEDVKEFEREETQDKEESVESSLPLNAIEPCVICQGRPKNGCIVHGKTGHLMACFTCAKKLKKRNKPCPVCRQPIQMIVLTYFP

Take `CCOc1cc(Cl)c(S(N)(=O)=O)cc1C1=N[C@@H](c2ccc(Cl)cc2)[C@@H](c2ccc(Cl)cc2)N1C(=O)N1CCN(CC(=O)N2CCOCC2)CC1` [Example 34, 5-{(4S,5R)-4,5-Bis-(4-chloro-phenyl)-1-[4-(2-morpholin-4-yl-2-oxo-ethyl)-piperazine-1-carbonyl]-4,5-dihydro-1H-imidazol-2-yl}-2-chloro-4-ethoxy-benzenesulfonamide]: the IC50 came out at 0.009 µM. To `CCOc1cc(C#N)ccc1C1=N[C@@H](c2ccc(Cl)cc2)[C@@H](c2ccc(Cl)cc2)N1C(=O)N1CCN(CCO)CC1` [Example 63, 4-{(4S,5R)-4,5-Bis-(4-chloro-phenyl)-1-[4-(2-hydroxy-ethyl)-piperazine-1-carbonyl]-4,5-dihydro-1H-imidazol-2-yl}-3-ethoxy-benzonitrile] belongs 0.009 µM; to `CCOc1ccc(S(=O)(=O)N(CCOC)CCOC)cc1C1=NC(c2ccc(Cl)cc2)C(c2ccc(Cl)cc2)N1C(=O)N1CCNC(=O)C1` (stereo not shown) [Example 105, 3-[4,5-Bis-(4-chloro-phenyl)-1-(3-oxo-piperazine-1-carbonyl)-4,5-dihydro-1H-imidazol-2-yl]-4-ethoxy-N,N-bis-(2-methoxy-ethyl)-benzenesulfonamide], 0.057 µM.

In the case of `CCOc1ccc(S(=O)(=O)NC(C)COC)cc1C1=NC(c2ccc(Cl)cc2)C(c2ccc(Cl)cc2)N1C(=O)N1CCN(CC(=O)NC)CC1` (stereo not shown) [Example 130, 2-(4-{4,5-Bis-(4-chloro-phenyl)-2-[2-ethoxy-5-(2-methoxy-1-methyl-ethylsulfamoyl)-phenyl]-4,5-dihydro-imidazole-1-carbonyl}-piperazin-1-yl)-N-methyl-acetamide], the IC50 came to 0.057 µM. The value for `CCOc1cc(Cl)c(S(=O)(=O)N2CCCC2)cc1C1=N[C@@H](c2ccc(Cl)cc2)[C@@H](c2ccc(Cl)cc2)N1C(=O)N1CCN(CCS(C)(=O)=O)CC1` [Example 174, [(4S,5R)-2-[4-Chloro-2-ethoxy-5-(pyrrolidine-1-sulfonyl)-phenyl]-4,5-bis-(4-chloro-phenyl)-4,5-dihydro-imidazol-1-yl]-[4-(2-methanesulfonyl-ethyl)-piperazin-1-yl]-methanone hydrochloride] was 0.005 µM; that for `CCOc1cc(Cl)c(S(=O)(=O)N2CCCCC2)cc1C1=N[C@@H](c2ccc(Cl)cc2)[C@@H](c2ccc(Cl)cc2)N1C(=O)N1CCN(CC(=O)N2CCOCC2)CC1` [Example 175, 2-{4-[(4S,5R)-2-[4-Chloro-2-ethoxy-5-(piperidine-1-sulfonyl)-phenyl]-4,5-bis-(4-chloro-phenyl)-4,5-dihydro-imidazole-1-carbonyl]-piperazin-1-yl}-1-morpholin-4-yl-ethanone hydrochloride] was 0.005 µM. Turning to `CCOc1cc(Cl)c(C#N)cc1C1=N[C@@H](c2ccc(Cl)cc2)[C@@H](c2ccc(Cl)cc2)N1C(=O)N1CCNC(=O)C1` [Example 234, 5-[(4S,5R)-4,5-Bis-(4-chloro-phenyl)-1-(3-oxo-piperazine-1-carbonyl)-4,5-dihydro-1H-imidazol-2-yl]-2-chloro-4-ethoxy-benzonitrile], the IC50 stood at 0.15 µM. To `CCOc1cc(N(C(=O)N2CCNC(=O)C2)S(C)(=O)=O)ccc1C1=N[C@@H](c2ccc(Cl)cc2)[C@@H](c2ccc(Cl)cc2)N1C(=O)N1CCNC(=O)C1` [Example 275, N-{4-[(4S,5R)-4,5-Bis-(4-chloro-phenyl)-1-(3-oxo-piperazine-1-carbonyl)-4,5-dihydro-1H-imidazol-2-yl]-3-ethoxy-phenyl}-N-(3-oxo-piperazine-1-carbonyl)-methanesulfonamide] belongs 0.31 µM. With `CCOc1cc(NC(=O)C(C)(C)C)ccc1C1=N[C@@H](c2ccc(Cl)cc2)[C@@H](c2ccc(Cl)cc2)N1C(=O)N1CCNC(=O)C1` [Example 277, N-{4-[(4S,5R)-4,5-Bis-(4-chloro-phenyl)-1-(3-oxo-piperazine-1-carbonyl)-4,5-dihydro-1H-imidazol-2-yl]-3-ethoxy-phenyl}-2,2-dimethyl-propionamide], the IC50 came to 0.16 µM. The value for `CCOc1cc(C#CC(C)(C)C)ccc1C1=N[C@@H](c2ccc(Cl)cc2)[C@@H](c2ccc(Cl)cc2)N1C(=O)N1CCN(CC(=O)N2CCOCC2)CC1` [Example 405, 2-(4-{(4S,5R)-4,5-Bis-(4-chloro-phenyl)-2-[4-(3,3-dimethyl-but-1-ynyl)-2-ethoxy-phenyl]-4,5-dihydro-imidazole-1-carbonyl}-piperazin-1-yl)-1-morpholin-4-yl-ethanone hydrochloride] was 0.544 µM.
